From patent publication US10947237B2, “Antimicrobial compounds and methods of making and using the same” (BIOVERSYS AG, priority 2015, dated 2021) come the findings set out here.

In assay [1] the test system is Eschericia coli (E. Coli) strain ATCC25922. The assay can be described thus: standard microdilution assay, minimum inhibitory concentration (MIC). The note with it: Escherichia coli. It is filed as cell-based. On the procedure: (§1) The in vitro activity of the compounds of the present disclosure can be determined. Antimicrobial testing is typically performed to determine the minimum inhibitory concentration (MIC). Minimum inhibitory concentrations (MICs) are determined by the microdilution method in a final volume of 100 μl according to protocols outlined by The Clinical and Laboratory Standards Institute (CLSI). Performance standards for reference strains are assessed within the same experimental design to maintain quality control. See, for example, Clinical Laboratory Standards Institute: Methods for dilution antimicrobial susceptibility tests for bacteria that grow aerobically M7-A8. Approved Standard-Eighth Edition. Wayne, Pa.: CLSI; December 2008; and Clinical Laboratory Standards Institute: Performance Standards for Antimicrobial Susceptibility Testing M100-S20; Approved Standard-Twentieth Edition. Wayne, Pa.: CLSI; June 2010. The compounds of the present disclosure were tested for antimicrobial activity. The Compounds 1-149 were run against Eschericia coli (E. Coli) strain ATCC25922 and against Staphylococcus aureus (S. aureus) 11540 strain using a standard microdilution assay to determine minimum inhibitory concentrations (MICs). […] It will be recognized by one skilled in the art that the compounds can be assessed against other bacterial organisms and that the presentation of data for activity against Eschericia coli and Staphylococcus aureus are illustrative and in no way is intended to limit the scope of the present disclosure. The compounds of the present disclosure can be assayed against a range of other microorganisms depending upon the performance activity desired to be gathered. Furthermore, the “+” and “−” representation and the selection of a cutoff value of 16 micrograms/mL is also illustrative and in no way is intended to limit the scope of the present disclosure.

Assay [2] concerns Staphylococcus aureus (S. aureus) 11540 strain. The assay is described as above. In kind it is cell-based. On the procedure: as §1

Turning to `O=c1nc2[nH]c(C3CCNC3)cc2cn1-c1ccc([C@@H]2CCC[C@@H](CCNc3ncc[nH]3)N2)cc1` (stereo partly shown) [Compound 94], the MIC is ≤ 16 µg/mL in assay [1] (Table 2, strain ATCC25922) and > 16 µg/mL in assay [2] (Table 2, 11540 strain).
As for `N=C(N)NCC[C@H](CNC(=N)N)OCc1ccc(-n2cc3cc(-c4cc(CCC[C@@H](N)CO)cc(Cl)c4F)[nH]c3nc2=O)cc1` [Compound 163], the MIC was ≤ 16 µg/mL in assay [1] (ATCC25922, Table 2a) and ≤ 16 µg/mL in assay [2] (Table 2a).
As for `CCNC[C@@H](CCNC(=N)N)NCc1ccc(-n2cc3cc(-c4cc(CCC[C@H](C)N)cc(Cl)c4F)[nH]c3nc2=O)cc1` [Compound 30], the MIC was ≤ 16 µg/mL in assay [1] (Table 2, strain ATCC25922) and ≤ 16 µg/mL in assay [2] (Table 2, 11540 strain).
With `C[C@H](N)CCCc1cc(Cl)c(F)c(-c2cc3cn(-c4ccc(CN[C@H](CCNC(=N)N)CC(N)=O)cc4)c(=O)nc3[nH]2)c1` [Compound 61], the MIC in assay [1] (Table 2, strain ATCC25922) was ≤ 16 µg/mL; in assay [2] (Table 2, 11540 strain), ≤ 16 µg/mL.
Take `C[C@H](N)CCCc1cc(Cl)c(F)c(-c2cc3cn(-c4ccc([C@H]5CC(N)C[C@H](CCNC6=NCCN6)O5)cc4)c(=O)nc3[nH]2)c1` (stereo partly shown) [Compound 143]: the minimal inhibitory concentration (MIC) in assay [1] (Table 2, strain ATCC25922) was ≤ 16 µg/mL; in assay [2] (Table 2, 11540 strain), ≤ 16 µg/mL.
For the molecule `N=C(CF)NCC[C@@H]1CCC[C@@H](c2ccc(-n3cc4cc(-c5cc(CCC[C@@H](N)CO)cc(Cl)c5F)[nH]c4nc3=O)cc2)N1` [Compound 150], the minimal inhibitory concentration (MIC) in assay [1] (Table 2, strain ATCC25922) is ≤ 16 µg/mL; in assay [2] (Table 2, 11540 strain) it was ≤ 16 µg/mL.
For `C[C@H](N)CCCc1cc(Cl)c(F)c(-c2cc3cn(-c4ccc(CN[C@H](CCNC(=N)N)CNC(=N)N)cc4)c(=O)nc3[nH]2)c1` [Compound 4], the MIC in assay [1] (Table 2, strain ATCC25922) is ≤ 16 µg/mL; in assay [2] (Table 2, 11540 strain), ≤ 16 µg/mL.
Regarding `C[C@H](N)CCCc1cc(Cl)c(F)c(-c2cc3cn(-c4ccc(CO[C@H](CCNC(=N)N)CNc5ccccn5)cc4)c(=O)nc3[nH]2)c1` [Compound 75], the MIC in assay [1] (Table 2, strain ATCC25922) was ≤ 16 µg/mL; in assay [2] (Table 2, 11540 strain), ≤ 16 µg/mL.
Regarding `C[C@@H](CCNC(=N)N)OCc1ccc(-n2cc3cc(C4CCNC4)[nH]c3nc2=O)cc1` (stereo partly shown) [Compound 131], the MIC in assay [1] (Table 2, strain ATCC25922) was > 16 µg/mL; in assay [2] (Table 2, 11540 strain) it was > 16 µg/mL.
As for `C[C@H](N)CCCc1cc(Cl)c(F)c(-c2cc3cn(-c4ccc([C@@H]5CCC[C@@H](C[C@@H](O)c6ccn[nH]6)N5)cc4)c(=O)nc3[nH]2)c1` [Compound 22], the MIC is ≤ 16 µg/mL in assay [1] (Table 2, strain ATCC25922) and ≤ 16 µg/mL in assay [2] (Table 2, 11540 strain).
For `Cc1nnc(NC[C@@H](CCNC(=N)N)NCc2ccc(-n3cc4cc(-c5cc(CCC[C@H](C)N)cc(Cl)c5F)[nH]c4nc3=O)cc2)o1` [Compound 51], the minimum inhibitory concentration (MIC) in assay [1] (Table 2, strain ATCC25922) was ≤ 16 µg/mL; in assay [2] (Table 2, 11540 strain), ≤ 16 µg/mL.
With `CCC(=N)NCC[C@@H]1CCC[C@@H](c2ccc(-n3cc4cc(-c5cc(CCC[C@H](C)N)cc(Cl)c5F)[nH]c4nc3=O)cc2)N1` [Compound 81], the MIC in assay [1] (Table 2, strain ATCC25922) was ≤ 16 µg/mL; in assay [2] (Table 2, 11540 strain) it was ≤ 16 µg/mL.
For `C[C@H](N)CCCc1cc(Cl)c(F)c(-c2cc3cn(-c4ccc(CN[C@H](CCNC(=N)N)Cc5ncon5)cc4)c(=O)nc3[nH]2)c1` [Compound 45], the MIC is ≤ 16 µg/mL in assay [1] (Table 2, strain ATCC25922) and ≤ 16 µg/mL in assay [2] (Table 2, 11540 strain).
As to `COc1ncccc1NC[C@@H](CCNC(=N)N)NCc1ccc(-n2cc3cc(-c4cc(CCC[C@H](C)N)cc(Cl)c4F)[nH]c3nc2=O)cc1` [Compound 63], the MIC is ≤ 16 µg/mL in assay [1] (Table 2, strain ATCC25922) and ≤ 16 µg/mL in assay [2] (Table 2, 11540 strain).
For the molecule `C[C@H](N)CCCc1cc(Cl)c(F)c(-c2cc3cn(-c4ccc(CN[C@H](CCNC(=N)N)CS(N)(=O)=O)cc4)c(=O)nc3[nH]2)c1` [Compound 15], the minimum inhibitory concentration (MIC) in assay [1] (Table 2, strain ATCC25922) was ≤ 16 µg/mL; in assay [2] (Table 2, 11540 strain), ≤ 16 µg/mL.
Take `O=c1nc2[nH]c(CCNC3CCNCC3)cc2cn1-c1ccc([C@@H]2CCC[C@@H](CCNc3ncc[nH]3)N2)cc1` [Compound 95]: the MIC was ≤ 16 µg/mL in assay [1] (Table 2, strain ATCC25922) and ≤ 16 µg/mL in assay [2] (Table 2, 11540 strain).
With `C[C@H](N)CCCC1CC(c2cc3cn(-c4ccc([C@H](C)NCCCNC(=N)N)cc4)c(=O)nc3[nH]2)CCN1` (stereo partly shown) [Compound 152], the minimal inhibitory concentration (MIC) was ≤ 16 µg/mL in assay [1] (Table 2, strain ATCC25922) and ≤ 16 µg/mL in assay [2] (Table 2, 11540 strain).
As to `N=C(N)NCC[C@H](CNc1ccccn1)OCc1ccc(-n2cc3cc(C4CCNC4)[nH]c3nc2=O)cc1` (stereo partly shown) [Compound 103], the MIC was > 16 µg/mL in assay [1] (Table 2, strain ATCC25922) and > 16 µg/mL in assay [2] (Table 2, 11540 strain).
Take `C[C@H](N)CCCc1cc(Cl)c(F)c(-c2cc3cn(-c4ccc([C@@H]5CCC[C@@H](CCNC(=N)CCCCl)N5)cc4)c(=O)nc3[nH]2)c1` [Compound 28]: the minimal inhibitory concentration (MIC) in assay [1] (Table 2, strain ATCC25922) was ≤ 16 µg/mL; in assay [2] (Table 2, 11540 strain) it was ≤ 16 µg/mL.
For the molecule `N=C(N)NCC[C@H]1CN(c2ccc(-n3cc4cc(CCNC5CCNCC5)[nH]c4nc3=O)cc2)CCO1` [Compound 144], the minimum inhibitory concentration (MIC) in assay [1] (Table 2, strain ATCC25922) was ≤ 16 µg/mL; in assay [2] (Table 2, 11540 strain), > 16 µg/mL.
For the molecule `C[C@H](N)CCCc1cc(Cl)c(F)c(-c2cc3cn(-c4ccc([C@@H]5CCC[C@@H](CCNC6=NCCC6)N5)cc4)c(=O)nc3[nH]2)c1` [Compound 27], the MIC is ≤ 16 µg/mL in assay [1] (Table 2, strain ATCC25922) and ≤ 16 µg/mL in assay [2] (Table 2, 11540 strain).
With `Cc1nc[nH]c1CNC[C@@H]1CCC[C@@H](c2ccc(-n3cc4cc(-c5cc(CCC[C@H](C)N)cc(Cl)c5F)[nH]c4nc3=O)cc2)N1` [Compound 11], the minimum inhibitory concentration (MIC) was ≤ 16 µg/mL in assay [1] (Table 2, strain ATCC25922) and ≤ 16 µg/mL in assay [2] (Table 2, 11540 strain).
As to `C[C@H](N)CCCc1cc(Cl)c(F)c(-c2cc3cn(-c4ccc(CN[C@@H](CF)CCNC(=N)N)cc4)c(=O)nc3[nH]2)c1` [Compound 107], the MIC is ≤ 16 µg/mL in assay [1] (Table 2, strain ATCC25922) and ≤ 16 µg/mL in assay [2] (Table 2, 11540 strain).
For the molecule `CC(=N)NCC[C@@H]1C[C@H](CN)O[C@@H](c2ccc(-n3cc4cc(-c5cc(CCC[C@H](C)N)cc(Cl)c5F)[nH]c4nc3=O)cc2)C1` [Compound 97], the MIC was ≤ 16 µg/mL in assay [1] (Table 2, strain ATCC25922) and ≤ 16 µg/mL in assay [2] (Table 2, 11540 strain).
For `COc1ccc(CNc2ncc(CC[C@@H](CCNC(=N)N)NCc3ccc(-n4cc5cc(-c6cc(CCC[C@H](C)N)cc(Cl)c6F)[nH]c5nc4=O)cc3)s2)cc1` [Compound 25], the MIC in assay [1] (Table 2, strain ATCC25922) is ≤ 16 µg/mL; in assay [2] (Table 2, 11540 strain), ≤ 16 µg/mL.
With `C[C@H](N)CCCc1cc(Cl)c(F)c(-c2cc3cn(-c4ccc([C@@H]5CCC[C@@H](CCNC(=N)C6CC6)N5)cc4)c(=O)nc3[nH]2)c1` [Compound 83], the MIC in assay [1] (Table 2, strain ATCC25922) is ≤ 16 µg/mL; in assay [2] (Table 2, 11540 strain), ≤ 16 µg/mL.
As to `C[C@H](N)CCCc1cc(Cl)c(F)c(-c2cc3cn(-c4ccc([C@H]5CCC[C@H](CCNC(=N)c6ccccn6)N5)cc4)c(=O)nc3[nH]2)c1` [Compound 3], the minimum inhibitory concentration (MIC) in assay [1] (Table 2, strain ATCC25922) was ≤ 16 µg/mL; in assay [2] (Table 2, 11540 strain) it was ≤ 16 µg/mL.
Consider `CC(=O)CNCC[C@@H]1CCC[C@@H](c2ccc(-n3cc4cc(-c5cc(CCC[C@H](C)N)cc(Cl)c5F)[nH]c4nc3=O)cc2)N1` [Compound 9], for which the MIC was ≤ 16 µg/mL in assay [1] (Table 2, strain ATCC25922) and ≤ 16 µg/mL in assay [2] (Table 2, 11540 strain).
As to `N=C(N)NCC[C@H](CNC(=N)N)OCc1ccc(-n2cc3cc(-c4cc(CCC[C@@H](N)C5CC5)cc(Cl)c4F)[nH]c3nc2=O)cc1` [Compound 164], the minimal inhibitory concentration (MIC) is ≤ 16 µg/mL in assay [1] (ATCC25922, Table 2a) and ≤ 16 µg/mL in assay [2] (Table 2a).
`C[C@H](N)CCCc1cc(Cl)c(F)c(-c2cc3cn(-c4ccc([C@@H]5CC(CCNC(=N)N)CC(CO)O5)cc4)c(=O)nc3[nH]2)c1` (stereo partly shown) [Compound 88]: the MIC was ≤ 16 µg/mL in assay [1] (Table 2, strain ATCC25922) and ≤ 16 µg/mL in assay [2] (Table 2, 11540 strain).
For the molecule `C[C@H](N)CCCc1cc(Cl)c(F)c(-c2cc3cn(-c4ccc(CN[C@H](CCNC(=N)N)CNc5ccon5)cc4)c(=O)nc3[nH]2)c1` [Compound 33], the minimal inhibitory concentration (MIC) was ≤ 16 µg/mL in assay [1] (Table 2, strain ATCC25922) and ≤ 16 µg/mL in assay [2] (Table 2, 11540 strain).
With `N=C(N)NCC[C@@H]1C[C@H](Nc2nccs2)C[C@@H](c2ccc(-n3cc4cc(C5CCNC5)[nH]c4nc3=O)cc2)O1` (stereo partly shown) [Compound 124], the MIC in assay [1] (Table 2, strain ATCC25922) is > 16 µg/mL; in assay [2] (Table 2, 11540 strain) it was > 16 µg/mL.
